What was measured:
[1] = biological target: human CMV DNA polymerase UL54 (Human cytomegalovirus (strain AD169) (HHV-5) (Human herpesvirus 5), UniProt P08546); test: CMV polymerase biochemical assay (molecular beacon-based)
Method in brief: (§1)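 Readout was beacon fluorescence (ex 480, em 535 nm), used to derive IC50. Each dNTP was at 1.25 uM, with 200 nM primer and 100 nM beacon, after a 30-min RT inhibitor preincubation. Enzyme was 625 pM for HSV UL30 (20 min RT reaction) or 100 pM for CMV UL54 (60 min RT), both sf9-expressed MBP fusions, in pH 7.5 Tris buffer with MgCl2.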

[2] = biological target: human HSV DNA polymerase UL30 (Human herpesvirus 1 (strain 17) (HHV-1) (Human herpes simplex virus 1), UniProt P04293); test: HSV polymerase biochemical assay (molecular beacon-based)
Method in brief: as §1

[3] = system: Luciferase-encoding HCMV, AD169 strain; test: CMV Luciferase assay (cellular herpesvirus replication); assay type: cell-based; settings: Human betaherpesvirus 5, AD169, read-out: CMV-Luc Cellular EC50
Method in brief: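 Neonatal human dermal fibroblasts were pretreated 1 h with compound (final 0.0159–50 μM or 0.00318–10 μM, 0.5% DMSO), then infected at MOI 1 with AD169 carrying pp28-promoter luciferase. After 72 h at 37 °C, Renilla-Glo luminescence normalized to no-virus and virus-only controls; EC50 by 4-parameter logistic model.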

CC1(CS(=O)(=O)C2(CN3CCn4c(ccc(C(=O)NCc5ccc(Cl)cc5)c4=O)C3=O)CC2)COC1 [Example 103-1]
IC50 [1]: 9.4 nM | IC50 [2]: 109 nM | EC50 [3]: 237 nM

CCS(=O)(=O)N(C)CCN1CCn2c(ccc(C(=O)NCc3ccc(Cl)cc3)c2=O)C1=O [Example 59]
IC50 [1]: 138 nM | IC50 [2]: 1480 nM | EC50 [3]: 1640 nM

CN(C)C(=O)OC1(CN2CCn3c(ccc(C(=O)NCc4ccc(Cl)cc4)c3=O)C2=O)CC1 [Example 172, 1-((7-((4-chlorobenzyl)carbamoyl)-1,6-dioxo-1,3,4,6-tetrahydro-2H-pyrido[1,2-a]pyrazin-2-yl)methyl)cyclopropyl dimethyl carbamate]
IC50 [1]: 2400 nM | IC50 [2]: 71000 nM | EC50 [3]: 10000 nM

Cc1cc(C(=O)NCc2ccc(F)cc2)c(=O)n2c1C(=O)N(CC1(S(C)(=O)=O)CC1)CC2 [Example 86-1]
IC50 [1]: 11.2 nM | IC50 [2]: 287 nM | EC50 [3]: 1520 nM

CC1(CN2CCn3c(ccc(C(=O)NCc4ccc(Cl)cc4)c3=O)C2=O)COC1 [Example 57-1]
IC50 [1]: 2660 nM | IC50 [2]: 31300 nM | EC50 [3]: 29200 nM

C[S@@](=N)(=O)C1(CN2CCn3c(ccc(C(=O)NCc4ccc(Cl)cc4)c3=O)C2=O)CC1 (single isomer, unassigned) [Example 96-1]
IC50 [1]: 12.6 nM | IC50 [2]: 372 nM | EC50 [3]: 244 nM

CN(CCN1CCn2c(ccc(C(=O)NCc3ccc(Cl)cc3)c2=O)C1=O)C(=O)OC(C)(C)C [Example 54, tert-butyl (2-(7-((4-chlorobenzyl)carbamoyl)-1,6-dioxo-3,4-dihydro-1H-pyrido[1,2-a]pyrazin-2(6H)-yl)ethyl)(methyl)carbamate]
IC50 [1]: 292 nM | IC50 [2]: 1930 nM | EC50 [3]: 4340 nM

CC1Cn2c(ccc(C(=O)NCc3ccc(Cl)cc3)c2=O)C(=O)N1CCN(C)S(C)(=O)=O (stereo not drawn) [Example 92, N-(4-chlorobenzyl)-3-methyl-2-(2-(N-methylmethylsulfonamido)ethyl)-1,6-dioxo-2,3,4,6-tetrahydro-1H-pyrido[1,2-a]pyrazine-7-carboxamide]
IC50 [1]: 312 nM | IC50 [2]: 1340 nM | EC50 [3]: 2980 nM

CN(CCN1CCn2c(c(C#CCO)cc(C(=O)NCc3ccc(Cl)cc3)c2=O)C1=O)S(C)(=O)=O [Example 155, N-(4-chlorobenzyl)-9-(3-hydroxyprop-1-yn-1-yl)-2-(2-(N-methylmethylsulfonamido)ethyl)-1,6-dioxo-1,3,4,6-tetrahydro-2H-pyrido[1,2-a]pyrazine-7-carboxamide]
IC50 [1]: 201 nM | IC50 [2]: 1950 nM | EC50 [3]: 37200 nM

Cc1cc(C(=O)NCc2ccc(C#N)c(F)c2)c(=O)n2c1C(=O)N(CC1(S(=O)(=O)C3CC3)CC1)CC2 [Example 93-3]
IC50 [1]: 5.9 nM | IC50 [2]: 28.3 nM | EC50 [3]: 21 nM

C[C@H](CCO)S(=O)(=O)C1(CN2CCn3c(ccc(C(=O)NCc4ccc(C#N)cc4)c3=O)C2=O)CC1 (single isomer, unassigned) [Example 9, N-(4-cyanobenzyl)-2-((1-((4-hydroxybutan-2-yl)sulfonyl)cyclopropyl)methyl)-1,6-dioxo-2,3,4,6-tetrahydro-1H-pyrido[1,2-a]pyrazine-7-carboxamide]
IC50 [1]: 1.7 nM | IC50 [2]: 73.8 nM | EC50 [3]: 167 nM

N#Cc1ccc(CNC(=O)c2ccc3n(c2=O)CCN(CC2(S(=O)(=O)C4CNC4)CC2)C3=O)cc1F [Example 16, 2-((1-(azetidin-3-ylsulfonyl)cyclopropyl)methyl)-N-(4-cyano-3-fluorobenzyl)-1,6-dioxo-2,3,4,6-tetrahydro-1H-pyrido[1,2-a]pyrazine-7-carboxamide]
IC50 [1]: 6.1 nM | IC50 [2]: 285 nM | EC50 [3]: 3420 nM

O=C(NCc1ccc(Cl)cc1)c1ccc2n(c1=O)CCN(CC1(N3CCCS3(=O)=O)CC1)C2=O [Example 70, N-(4-chlorobenzyl)-2-((1-(1,1-dioxidoisothiazolidin-2-yl)cyclopropyl)methyl)-1,6-dioxo-2,3,4,6-tetrahydro-1H-pyrido[1,2-a]pyrazine-7-carboxamide]
IC50 [1]: 1.4 nM | IC50 [2]: 28.1 nM | EC50 [3]: 40.1 nM

N#Cc1ccc(CNC(=O)c2ccc3n(c2=O)CCN(CC2(S(=O)(=O)CC4CC4)CC2)C3=O)cc1 [Example 107-2]
IC50 [1]: 2.5 nM | IC50 [2]: 150 nM | EC50 [3]: 200 nM

O=C(NCc1ccc(Cl)cc1)c1ccc2n(c1=O)CCN(CCN1CCCC1=O)C2=O [Example 56]
IC50 [1]: 312 nM | IC50 [2]: 4760 nM | EC50 [3]: 3830 nM

Cc1cc(C(=O)NCc2ccc(Cl)cc2)c(=O)n2c1C(=O)N(CCN(C)S(C)(=O)=O)CC2 [Example 148, N-(4-chlorobenzyl)-9-methyl-2-(2-(N-methylmethylsulfonamido)ethyl)-1,6-dioxo-1,3,4,6-tetrahydro-2H-pyrido[1,2-a]pyrazine-7-carboxamide]
IC50 [1]: 181 nM | IC50 [2]: 1510 nM | EC50 [3]: 1660 nM

N#Cc1ccc(CNC(=O)c2ccc3n(c2=O)CCN(CC2(S(=O)(=O)C4(CF)CC4)CC2)C3=O)cc1 [Example 13]
IC50 [1]: 0.4 nM | IC50 [2]: 28.3 nM | EC50 [3]: 19.3 nM

CS(=O)(=O)CC1(CN2CCn3c(ccc(C(=O)NCc4ccc(Cl)cc4)c3=O)C2=O)CC1 [Example 173, N-(4-chlorobenzyl)-2-((1-((methylsulfonyl)methyl)cyclopropyl)methyl)-1,6-dioxo-1,3,4,6-tetrahydro-2H-pyrido[1,2-a]pyrazine-7-carboxamide]
IC50 [1]: 20.6 nM | IC50 [2]: 232 nM | EC50 [3]: 364 nM

C[S+]([O-])C1(CN2CCn3c(ccc(C(=O)NCc4ccc(C#N)cc4)c3=O)C2=O)CC1 (stereo not drawn) [Example 68-1, N-(4-cyanobenzyl)-2-((1-(methylsulfinyl)cyclopropyl)methyl)-1,6-dioxo-2,3,4,6-tetrahydro-1H-pyrido[1,2-a]pyrazine-7-carboxamide]
IC50 [1]: 146 nM | IC50 [2]: 3800 nM | EC50 [3]: 3170 nM

N#Cc1ccc(CNC(=O)c2ccc3n(c2=O)CCN(CC2(S(=O)(=O)N4CCC4)CC2)C3=O)cc1F [Example 88-1, 2-((1-(azetidin-1-ylsulfonyl)cyclopropyl)methyl)-N-(4-cyano-3-fluorobenzyl)-1,6-dioxo-2,3,4,6-tetrahydro-1H-pyrido[1,2-a]pyrazine-7-carboxamide]
IC50 [1]: 2 nM | IC50 [2]: 65.1 nM | EC50 [3]: 24.2 nM

CC(C)(C#N)S(=O)(=O)C1(CN2CCn3c(ccc(C(=O)NCc4ccc(Cl)cc4)c3=O)C2=O)CC1 [Example 185, N-(4-chlorobenzyl)-2-((1-((2-cyanopropan-2-yl)sulfonyl)cyclopropyl)methyl)-1,6-dioxo-1,3,4,6-tetrahydro-2H-pyrido[1,2-a]pyrazine-7-carboxamide]
IC50 [1]: 1.2 nM | IC50 [2]: 29.5 nM | EC50 [3]: 18.9 nM

CC(CN1CCn2c(ccc(C(=O)NCc3ccc(Cl)cc3)c2=O)C1=O)S(=O)(=O)C1CC1 (stereo not drawn) [Example 191]
IC50 [1]: 76.5 nM | IC50 [2]: 5460 nM | EC50 [3]: 3460 nM

N#Cc1ccc(CNC(=O)c2ccc3n(c2=O)CCN(CC2(S(=O)(=O)C4(C(F)F)CC4)CC2)C3=O)cc1F [Example 99-2]
IC50 [1]: 0.7 nM | IC50 [2]: 52.4 nM | EC50 [3]: 30.1 nM

O=C(NCc1ccc(Cl)cc1)c1ccc2n(c1=O)CCN(CC1(S(=O)(=O)C3COC3)CC1)C2=O [Example 30]
IC50 [1]: 1.5 nM | IC50 [2]: 38 nM | EC50 [3]: 36.3 nM

N#Cc1ccc(CNC(=O)c2ccc3n(c2=O)CCN(CC2(S(=O)(=O)C4CC4)CC2)C3=O)cc1F [Example 3-1]
IC50 [1]: 0.8 nM | IC50 [2]: 38.1 nM | EC50 [3]: 17.7 nM

CN1CC(S(=O)(=O)C2(CN3CCn4c(ccc(C(=O)NCc5ccc(C#N)cc5)c4=O)C3=O)CC2)C1 [Example 20]
IC50 [1]: 13.2 nM | IC50 [2]: 319 nM | EC50 [3]: 1500 nM

Cc1nc(-c2cc(C(=O)NCc3ccc(Cl)cc3)c(=O)n3c2C(=O)N(CCS(C)(=O)=O)CC3)no1 [Example 159, N-(4-chlorobenzyl)-9-(5-methyl-1,2,4-oxadiazol-3-yl)-2-(2-(methylsulfonyl)ethyl)-1,6-dioxo-1,3,4,6-tetrahydro-2H-pyrido[1,2-a]pyrazine-7-carboxamide]
IC50 [1]: 1780 nM | IC50 [2]: 5660 nM | EC50 [3]: 26600 nM

Cc1cc(C(=O)NCc2ccc(Cl)cc2)c(=O)n2c1C(=O)N(CC1(S(=O)(=O)C3CC3)CC1)CC2 [Example 93-2]
IC50 [1]: 0.8 nM | IC50 [2]: 28.6 nM | EC50 [3]: 15.3 nM

O=C(NCc1ccc(Cl)cc1)c1ccc2n(c1=O)CCN(CC1(S(=O)(=O)CC3(C(F)(F)F)CC3)CC1)C2=O [Example 104-1]
IC50 [1]: 18.6 nM | IC50 [2]: 185 nM | EC50 [3]: 639 nM

O=C(NCc1ccc(Cl)cc1)c1ccc2n(c1=O)CCN(C1CCS(=O)(=O)C1)C2=O (stereo not drawn) [Example 53-1]
IC50 [1]: 729 nM | IC50 [2]: 4440 nM | EC50 [3]: 11200 nM

CC(C)(c1ncno1)S(=O)(=O)C1(CN2CCn3c(ccc(C(=O)NCc4ccc(Cl)cc4)c3=O)C2=O)CC1 [Example 178, 2-((1-((2-(1,2,4-oxadiazol-5-yl)propan-2-yl)sulfonyl)cyclopropyl)methyl)-N-(4-chlorobenzyl)-1,6-dioxo-1,3,4,6-tetrahydro-2H-pyrido[1,2-a]pyrazine-7-carboxamide]
IC50 [1]: 0.3 nM | IC50 [2]: 10 nM | EC50 [3]: 43.4 nM

O=C(NCc1ccc(Cl)cc1)c1ccc2n(c1=O)CCN(CC1(N3CCCCC3=O)CC1)C2=O [Example 202]
IC50 [1]: 305 nM | IC50 [2]: 6470 nM | EC50 [3]: 7650 nM

N#Cc1ccc(CNC(=O)c2ccc3n(c2=O)CCN(CC2(S(=O)(=O)C4(C(F)F)CC4)CC2)C3=O)cc1Cl [Example 99-3]
IC50 [1]: 0.8 nM | IC50 [2]: 201 nM | EC50 [3]: 172 nM

Source: patent US12466821B2 (Novartis AG, priority 2018, dated 2025)
